Our source for the IC50 values is US20250388568A1, “NLRP3 INHIBITORS” (Kodiak Sciences Inc., priority 2022, published 2025).

Assay [1] relates to IL-1β release in THP-1-ASC-GFP cells after NLRP3 activation. Description: IC50 determination of IL-1β release inhibition in THP-1-ASC-GFP cells. It counts as cell-based. The note with it: THP1-ASC-GFP, read-out: IL-1β IC50 (nM) THP1 cells. Here is the method:
Example 78: IC50 Determination of IL-1β Release Inhibition in THP-1-ASC-GFP Cells The compounds were tested for their ability to inhibit the IL-1β release in the THP-1-ASC-GFP cells after NLRP3 activation. THP1-ASC-GFP cells (Invivogen […] thawed following Invivogen's initial culture procedure. […] The growth medium was composed of RPM1640 medium (Gibco 32404-014), 10% heat inactivated (HI) serum (Gibco A3840102), Pen/Strep (Quality Biologics 118-089-721), 10 mM Hepes (Quality Biologics 118-089-721), 2 mM Glutamax (GIBCO 35050-061), 100 μg/mL normocin (Invivogen ant-nr), 100 μg/mL Zeocin (Invivogen ant-zn). The growth medium was freshly prepared once a week and sterile filtered. Assay medium consisted of RPMI 1640 medium, 10 mM Hepes, 2 mM Glutamax and Pen/Strep. To the assay medium, 1 μg/mL LPS (Invivogen tlrl-3pelps) was added. A cell suspension was prepared with assay medium and LPS at 1.25M cells per mL. With an electronic pipet, 80 μl of cell suspension was added to U bottom 96 well polystyrene plates (VWR 10062-902) leaving columns 1 and 2 empty. The plates were placed in the incubator for 4 hours. […] DMSO). An hour prior to the end of LPS incubation, a separate 96 deep well plate, Plate B, was prepared with 400 μL of assay media per well, then 2 μL of the stock DMSO solution from Plate A was added to each corresponding well. Plate B was covered to avoid media evaporation. In a 50 mL tube, a solution of nigericin in assay media at […] concentration was prepared. To a new 96 deep well plate, Plate C, 200 μL of this nigericin containing media was dispensed to each well and […] of the test compounds from Plate A to each corresponding well was added. Plate C was covered to avoid media evaporation. After 4 hours of priming, all the media from the LPS treated THP-1 cells in the initial U bottom plate was removed manually. To this plate of primed cells, 80 μL/well test compounds from Plate B was added in duplicate columns (5 compounds tested per plate). The plate was placed in an incubator for 30 min. […] The plate was placed back in the incubator for 1 hour. At the end of 1 hour, the supernatant from this test plate was transferred to a new 96 well V bottom polypropylene plate which was frozen immediately at -80° C. The plate was transferred to -20° C. the next day and awaiting further determination of cytokine IL-1β level. The release of IL-1β into the cell media was determined by MSD® Multi-Spot Assay System (V-Plex, IL-1B kit, […]-4). Following the manufacture's protocol and using the Alternate Protocol 3, Dilute-In-Plate protocol specifically, the level of IL-1β in the above collected supernatant plate was measured as electrochemiluminescent signals. Using MSD DISCOVERY WORKBENCH® analysis software, the signals were converted to the concentration of IL-1β in each well. The IC50 values of the compounds were calculated using the Graph Pad Prism software based on the […] concentration determined. The detection range of IL-1β using MSD kit was approximately […] (based on various lots of standards purchased from MSD).

Assay [2] relates to IL-1β release in U937 cells after NLRP3 activation. The assay can be described thus: IC50 determination of IL-1β release inhibition in U937 cells. It counts as cell-based. The following applies: Homo sapiens, read-out: IL-1β IC50 (nM) U937 cells. As to the method:
Example 79: IC50 Determination of IL-1β Release Inhibition in U937 Cells The compounds of the present disclosure were tested for their ability to inhibit the IL-1β release in the U937 cells after NLRP3 activation. U937 cells (U-97 CRL 1593.2) were thawed following ATCC's initial culture procedure. […] The growth medium was composed of RPMI1640 medium (Quality Biological 112-040-101), 10% serum (Corning 35-076-CV), Pen/Strep (GIBCO 15140-122), 10 mM Hepes (Quality Biological 118-089-721), 2 mM Glutamax (GIBCO 35050-061), and 100 μg/mL normocin (Invivogen ant-nr)-Differentiating media was prepared by adding Phorbol 12-myristate 13-acetate (PMA) (AdipoGen AG-CN2-0010-M005) to growth medium. A cell suspension was prepared with differentiating media at 500k cells/ml. With an electronic pipet, 200 ul of cell suspension was added to each well (96w white plate Corning 3903) leaving columns 1 and 2 empty. Plates were left in the biosafety cabinet for 15 min and then placed in incubator for 90 hours. Priming media was prepared with assay medium consisting of RPMI 1640 medium, 10 mM Hepes, 2 mM Glutamax and Pen/Strep plus 1 μg/mL LPS (Invivogen tlrl-3pelps). Differentiating media was manually removed and 80 ul of priming media was added to each well with an electronic pipet. The plates were placed in the incubator for 5 hours. […] DMSO). An hour prior to the end of LPS incubation, a separate 96 deep well plate, Plate B, was prepared with 400 μL of assay media per well, then […] of the stock DMSO solution from Plate A was added to each corresponding well. Plate B was covered to avoid media evaporation. In a 50 mL tube, a solution of nigericin in assay media at 50 uM/mL concentration was prepared. To a new 96 deep well plate, Plate C, 200 μL of this nigericin containing media was dispensed to each well and 1 μL of the test compounds from Plate B to each corresponding well was added. Plate C was covered to avoid media evaporation. After 5 hours of priming, all the media from the LPS treated U937 cells was removed manually. To this plate of primed cells, 80 μL/well test compounds from Plate B (assay media+compound) was added in duplicate columns (5 compounds tested per plate). The plate was placed in an incubator for 30 min. […] The plate was placed back in the incubator for 1 hour. At the end of 1 hour, the supernatant from this test plate was transferred to a new 96 well V bottom polypropylene plate which was frozen immediately at -80° C. The plate was transferred to -20° C. the next day and awaited further determination of cytokine IL-Ip level. The release of IL-1β into the cell media was determined by MSD® Multi-Spot Assay System (V-Plex, IL-1B kit, […]-4). Following the manufacture's protocol and using the Alternate Protocol 3, Dilute-In-Plate protocol specifically, the level of IL-IP in the above collected supernatant plate was measured as electrochemiluminescent signals. Using MSD DISCOVERY WORKBENCH® analysis software, the signals were converted to the concentration of IL-1β in each well. The IC50 values of the compounds were calculated using the Graph Pad Prism software based on the IL-1β concentration determined. The detection range of IL-1β using MSD kit was approximately […] (based on various lots of standards purchased from MSD).

[3] abbreviates: THP-1-ASC-GFP cells, LPS priming 4 h, nigericin, average of at least three experiments.
The mark [4] stands for this setting: U-937, PMA-differentiated U937 cells, LPS priming 5 h, nigericin, average of at least three experiments.

Like-named read-outs stand apart in the source and are kept apart here. Some results are limits rather than exact numbers.

One may read the IC50 as the concentration that gives 50% inhibition. Take `Cc1cc(S(=O)(=O)NC(=O)Nc2c3c(c(F)c4c2CCC4)CCC3)oc1CN(C)CC1(O)CCC1` [Example 50, N-((8-fluoro-1,2,3,5,6,7-hexahydro-s-indacen-4-yl)carbamoyl)-5-((((1-hydroxycyclobutyl)methyl)(methyl)amino)methyl)-4-methylfuran-2-sulfonamide]: the IC50 in assay [1] (setting [3]) and in assay [2] (setting [4]) was 5 to 50 nM throughout.
Regarding `CNCc1coc([S@@](=N)(=O)NC(=O)Nc2c3c(cc4c2CCC4)CCC3)c1` (single isomer, unassigned) [Example 76], the IC50 in assay [1] (setting [3]) and in assay [2] (setting [4]) was under 5 nM throughout.
On to `CN(Cc1coc(S(=O)(=O)NC(=O)Nc2c3c(cc4c2CCC4)CCC3)c1)CC1(O)CCC1` [Example 33, N-((1,2,3,5,6,7-hexahydro-s-indacen-4-yl)carbamoyl)-4-((((1-hydroxycyclobutyl)methyl)(methyl)amino)methyl)furan-2-sulfonamide], for which the IC50 in assay [1] (setting [3]) and in assay [2] (setting [4]) was 5 to 50 nM in each case.
Regarding `CC(C)NCc1coc(S(=N)(=O)NC(=O)Nc2c3c(cc4c2CCC4)CCC3)c1` (stereo not shown) [Example 23, N-((1,2,3,5,6,7-hexahydro-s-indacen-4-yl)carbamoyl)-4-((isopropylamino)methyl)furan-2-sulfonimidamide], the 50% inhibitory concentration (IC50) is under 5 nM in assay [1] (4 h) and under 5 nM in assay [2] (U-937, 5 h).
Turning to `CC(C)n1nc(S(=N)(=O)NC(=O)Nc2c3c(cc4c2CCC4)CCC3)cc1CN1CCC[C@@H]1CO` (stereo partly drawn) [Example 20, N-((1,2,3,5,6,7-hexahydro-s-indacen-4-yl)carbamoyl)-5-(((R)-2-(hydroxymethyl)pyrrolidin-1-yl)methyl)-1-isopropyl-1H-pyrazole-3-sulfonimidamide], the figures for the IC50 in assay [1] (setting [3]) and in assay [2] (setting [4]) were under 5 nM and 5 to 50 nM, respectively.
Take `Cc1oc(S(=O)(=O)NC(=O)Nc2c3c(c(F)c4c2CCC4)CCC3)cc1CN1CCC[C@@H]1CO` [Example 45, (R)-N-((8-fluoro-1,2,3,5,6,7-hexahydro-s-indacen-4-yl)carbamoyl)-4-((2-(hydroxymethyl)pyrrolidin-1-yl)methyl)-5-methylfuran-2-sulfonamide]: the half-inhibitory concentration (IC50) is under 5 nM in assay [1] (setting [3]) and 5 to 50 nM in assay [2] (setting [4]).
As to `Cc1oc(S(=N)(=O)NC(=O)Nc2c3c(cc4c2CCC4)CCC3)cc1CN1CC[C@H](CO)C1` (stereo partly drawn) [Example 6, N-((1,2,3,5,6,7-hexahydro-s-indacen-4-yl)carbamoyl)-4-(((S)-3-(hydroxymethyl)pyrrolidin-1-yl)methyl)-5-methylfuran-2-sulfonimidamide], the results for the IC50 in assay [1] (setting [3]) and in assay [2] (setting [4]) were under 5 nM and 5 to 50 nM, respectively.
Regarding `Cc1oc(S(=N)(=O)NC(=O)Nc2c3c(c(F)c4c2CCC4)CCC3)cc1CN1CC(O)C1` (stereo not shown) [Example 14, N-((8-fluoro-1,2,3,5,6,7-hexahydro-s-indacen-4-yl)carbamoyl)-4-((3-hydroxyazetidin-1-yl)methyl)-5-methylfuran-2-sulfonimidamide], the IC50 was under 5 nM in assay [1] (setting [3]) and 5 to 50 nM in assay [2] (setting [4]).
Turning to `O=C(Nc1c2c(cc3c1CCC3)CCC2)NS(=O)(=O)c1cc2c(o1)CCN(CCCO)C2` [Example 74, N-((1,2,3,5,6,7-hexahydro-s-indacen-4-yl)carbamoyl)-5-(3-hydroxypropyl)-4,5,6,7-tetrahydrofuro[3,2-c]pyridine-2-sulfonamide], the IC50 in assay [1] (setting [3]) and in assay [2] (setting [4]) was 5 to 50 nM throughout.
As for `Cc1oc(S(=N)(=O)NC(=O)Nc2c3c(c(F)c4c2CCC4)CCC3)cc1CN(C)CC1(CO)CCC1` (stereo not shown) [Example 13, N-((8-fluoro-1,2,3,5,6,7-hexahydro-s-indacen-4-yl)carbamoyl)-4-((((1-(hydroxymethyl)cyclobutyl)methyl)(methyl)amino)methyl)-5-methylfuran-2-sulfonimidamide], the half-maximal inhibitory concentration (IC50) in assay [1] (setting [3]) is under 5 nM; in assay [2] (setting [4]), 5 to 50 nM.
For the compound `Cc1oc(S(=O)(=O)NC(=O)Nc2c3c(c(F)c4c2CCC4)CCC3)cc1CN1CC[C@@H](O)C1` [Example 39, (R)-N-((8-fluoro-1,2,3,5,6,7-hexahydro-s-indacen-4-yl)carbamoyl)-4-((3-hydroxypyrrolidin-1-yl)methyl)-5-methylfuran-2-sulfonamide], the values for the 50% inhibitory concentration (IC50) in assay [1] (setting [3]) and in assay [2] (setting [4]) were 5 to 50 nM and 50 to 500 nM, respectively.
Consider `Cc1oc(S(=O)(=O)NC(=O)Nc2c3c(c(F)c4c2CCC4)CCC3)cc1CN1C[C@@H](O)[C@H](F)C1` [Example 43, N-((8-fluoro-1,2,3,5,6,7-hexahydro-s-indacen-4-yl)carbamoyl)-4-(((3R,4R)-3-fluoro-4-hydroxypyrrolidin-1-yl)methyl)-5-methylfuran-2-sulfonamide], for which the IC50 in assay [1] (setting [3]) is under 5 nM; in assay [2] (setting [4]), 5 to 50 nM.
Take `CC(C)NCc1coc([S@@](=N)(=O)NC(=O)Nc2c3c(c(F)c4c2CCC4)CCC3)c1` (single isomer, unassigned) [Example 30]: the IC50 in assay [1] (setting [3]) was 50 to 500 nM; in assay [2] (setting [4]), over 500 nM.
For `O=C(Nc1c2c(cc3c1CCC3)CCC2)NS(=O)(=O)c1cc2c(o1)CCNC2` [Example 73, N-((1,2,3,5,6,7-hexahydro-s-indacen-4-yl)carbamoyl)-4,5,6,7-tetrahydrofuro[3,2-c]pyridine-2-sulfonamide] the same measures were 5 to 50 nM and 5 to 50 nM.
